Read-outs that look alike come from different tables or passages of the source.
Tests used:
Format in all cases: cell-based
hGCGR = target: T1, hGCGR (Homo sapiens, UniProt P47871); test: Functional cAMP formation (HTRF) in HEK-293 clonal cells expressing hGCGR, 0.1% bovine casein, without or with 1.0% human serum albumin; conditions: geometric mean
T1 construct: expressed in transfected cells
In short: (§1)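 Cells were stimulated with peptide for 30 min at 37° C, then intracellular cAMP was measured by competitive HTRF (665/620 nm ratio) and converted to nM using a cAMP standard curve. Relative EC50 and Emax came from four-parameter logistic fits of percent maximal response against peptide concentration.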

hGIPR = target: T2, hGIPR (Homo sapiens, UniProt P48546); test: Functional cAMP formation (HTRF) in HEK-293 clonal cells expressing hGIPR, 0.1% bovine casein, without or with 1.0% human serum albumin; conditions: for EC50: cAMP, 0.1% bovine casein (no human serum albumin), geometric mean
T2 construct: expressed in transfected cells
T2 sequence (P48546 22-466): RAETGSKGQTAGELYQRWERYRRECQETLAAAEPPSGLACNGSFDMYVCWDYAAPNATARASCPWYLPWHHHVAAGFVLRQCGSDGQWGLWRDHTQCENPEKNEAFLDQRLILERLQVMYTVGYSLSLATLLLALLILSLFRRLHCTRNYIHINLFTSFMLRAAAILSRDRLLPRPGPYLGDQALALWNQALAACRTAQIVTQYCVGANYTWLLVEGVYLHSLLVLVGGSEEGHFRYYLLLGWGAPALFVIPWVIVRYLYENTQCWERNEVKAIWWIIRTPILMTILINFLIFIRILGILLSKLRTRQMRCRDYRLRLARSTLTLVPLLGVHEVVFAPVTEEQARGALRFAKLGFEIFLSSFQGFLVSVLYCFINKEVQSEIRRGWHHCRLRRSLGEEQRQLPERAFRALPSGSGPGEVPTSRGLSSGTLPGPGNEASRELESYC
In short: as §1

hGLP-1R = hGLP-1R (Homo sapiens, UniProt P43220); test: Functional cAMP formation (HTRF) in HEK-293 clonal cells expressing hGLP-1R, 0.1% bovine casein, without or with 1.0% human serum albumin; parameters: expressed in transfected cells; conditions: for EC50: geometric mean
In short: as §1

[1] = 0.1% bovine casein and 1.0% human serum albumin, 37° C., read-out: hGCGR EC50, nM (SEM, n)
[2] = cAMP, incubated at 37° C., 0.1% bovine casein (no human serum albumin), read-out: hGCGR EC50, nM (SEM, n)
[3] = HEK293, 0.1% bovine casein and 1.0% human serum albumin, 37° C., percent of maximal response to GIP(1-42)NH2, read-out: hGIPR Emax, % ± SEM
[4] = HEK293, percent of maximal response to GIP(1-42)NH2, 37° C., 0.1% bovine casein, arithmetic mean, read-out: hGIPR Emax, % ± SEM
[5] = 0.1% bovine casein and 1.0% human serum albumin, 37° C., read-out: hGLP-1R EC50, nM (SEM, n)
[6] = HEK293, 0.1% bovine casein and 1.0% human serum albumin, 37° C., percent of maximal response to GLP-1(7-36)NH2, read-out: hGLP-1R Emax, % ± SEM

hGLP-1R, sequence (P43220 24-463): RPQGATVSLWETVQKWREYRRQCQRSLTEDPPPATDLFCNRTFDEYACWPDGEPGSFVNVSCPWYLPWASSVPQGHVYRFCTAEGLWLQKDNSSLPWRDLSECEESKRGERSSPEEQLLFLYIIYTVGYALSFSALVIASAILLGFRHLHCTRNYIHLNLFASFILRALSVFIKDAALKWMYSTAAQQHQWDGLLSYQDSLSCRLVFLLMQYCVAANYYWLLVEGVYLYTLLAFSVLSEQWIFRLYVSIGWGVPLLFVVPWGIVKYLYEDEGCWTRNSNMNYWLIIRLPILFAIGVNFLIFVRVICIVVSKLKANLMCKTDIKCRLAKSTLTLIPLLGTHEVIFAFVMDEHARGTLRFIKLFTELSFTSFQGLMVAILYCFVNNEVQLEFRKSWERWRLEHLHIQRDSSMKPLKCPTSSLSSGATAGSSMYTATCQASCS
T1 sequence (P47871 26-477): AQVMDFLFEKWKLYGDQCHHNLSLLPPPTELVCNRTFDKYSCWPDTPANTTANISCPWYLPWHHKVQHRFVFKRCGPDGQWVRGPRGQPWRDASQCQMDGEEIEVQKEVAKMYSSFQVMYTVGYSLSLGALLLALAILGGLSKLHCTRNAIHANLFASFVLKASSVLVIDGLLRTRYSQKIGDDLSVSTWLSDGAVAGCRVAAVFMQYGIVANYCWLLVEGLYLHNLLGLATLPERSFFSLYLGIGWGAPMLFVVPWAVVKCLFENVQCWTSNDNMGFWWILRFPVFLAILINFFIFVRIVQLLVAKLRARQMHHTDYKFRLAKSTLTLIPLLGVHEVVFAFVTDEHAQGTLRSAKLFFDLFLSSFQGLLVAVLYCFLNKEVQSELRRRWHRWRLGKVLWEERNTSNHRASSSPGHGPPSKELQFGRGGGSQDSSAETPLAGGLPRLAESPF

SMILES | EC50 (hGCGR; [1]) | EC50 (hGCGR; [2]) | Emax (hGIPR; [3]) | Emax (hGIPR; [4]) | EC50 (hGIPR; incubated at 37° C., read-out: hGIPR EC50, nM (SEM, n)) | EC50 (hGLP-1R; [5]) | Emax (hGLP-1R; [6]) | Emax (hGLP-1R; HEK293, percent of maximal response to GLP-1(7-36)NH2, 37° C., 0.1% bovine casein, arithmetic mean, read-out: hGLP-1R Emax, % ± SEM) | EC50 (hGCGR; hGCGR EC50, nM (SEM, n), 0.1% bovine casein and 1.0% human serum albumin, 37° C.) | EC50 (hGCGR; hGCGR EC50, nM (SEM, n), cAMP, 37° C., 0.1% bovine casein (no human serum albumin)) | Emax (hGIPR; HEK293, read-out: hGIPR Emax, % ± SEM, 0.1% bovine casein and 1.0% human serum albumin, 37° C., percent of maximal response to GIP(1-42)NH2) | Emax (hGIPR; HEK293, read-out: hGIPR Emax, % ± SEM, cAMP, 37° C., 0.1% bovine casein, percent of maximal response to GIP(1-42)NH2, arithmetic mean) | EC50 (hGIPR; hGIPR EC50, nM (SEM, n), 37° C.) | Emax (hGLP-1R; HEK293, read-out: hGLP-1R Emax, % ± SEM, 0.1% bovine casein and 1.0% human serum albumin, 37° C., percent of maximal response to GLP-1(7-36)NH2) | EC50 (hGLP-1R; hGLP-1R EC50, nM (SEM, n), cAMP, 37° C., 0.1% bovine casein (no human serum albumin)) | EC50 (hGCGR; cAMP, 37° C., 0.1% bovine casein (no human serum albumin), read-out: hGCGR EC50, nM (SEM, n)) | Emax (hGIPR; HEK293, cAMP, 37° C., 0.1% bovine casein, percent of maximal response to GIP(1-42)NH2, arithmetic mean, read-out: hGIPR Emax, % ± SEM) | EC50 (hGIPR; 37° C., read-out: hGIPR EC50, nM (SEM, n)) | EC50 (hGLP-1R; cAMP, 37° C., 0.1% bovine casein (no human serum albumin), read-out: hGLP-1R EC50, nM (SEM, n))
CC[C@H](C)[C@H](NC(=O)[C@H](CC(C)C)NC(=O)[C@](C)(Cc1ccc(O)cc1)NC(=O)[C@@H](CCC(=O)O)NC(=O)[C@@H](NC(=O)[C@H](Cc1ccccc1)NC(=O)[C@H](CCC(=O)O)NC(=O)C(C)(C)NC(=O)[C@H](CCC(N)=O)NC(=O)[C@H](C)NC(=O)[C@H](CCCCNC(=O)[C@@H](N)CCCCNC(=O)CC[C@H](NC(=O)CCCCCCCCCCCCC(=O)O)C(=O)O)NC(=O)[C@H](CCCN)NC(=O)[C@H](CC(=O)O)NC(=O)[C@H](CC(C)C)NC(=O)[C@](C)(CC(C)C)NC(=O)[C@@H](NC(=O)C(C)(C)NC(=O)[C@@H](NC(=O)[C@H](CC(=O)O)NC(=O)[C@H](CO)NC(=O)[C@@H](NC(=O)[C@](C)(Cc1ccccc1F)NC(=O)[C@@H](NC(=O)CNC(=O)[C@H](CCC(=O)O)NC(=O)C(C)(C)NC(=O)[C@@H](N)Cc1ccc(O)cc1)[C@@H](C)O)[C@@H](C)O)C(C)C)[C@@H](C)CC)[C@@H](C)CC)C(=O)N[C@@H](CCC(=O)O)C(=O)NCC(=O)NCC(=O)N[C@@H](CCCCNC(=O)[C@@H](N)CCCCNC(=O)CC[C@H](NC(=O)CCCCCCCCCCCCC(=O)O)C(=O)O)C(=O)N[C@@H](CO)C(=O)N[C@@H](CO)C(=O)NCC(=O)N[C@@H](C)C(=O)N1CCC[C@H]1C(=O)N1CCC[C@H]1C(=O)N1CCC[C@H]1C(=O)N[C@@H](CO)C(N)=O [Example 164] | > 9950 nM | > 9950 nM | 93% | 95.8 ± 5.48% | 0.0464 nM | 26.6 nM | 95.4% | 93.8 ± 0.298% | – | – | – | – | – | – | – | – | – | – | –
CC[C@H](C)[C@H](NC(=O)[C@H](CCCN)NC(=O)[C@H](CC(=O)O)NC(=O)[C@H](CC(C)C)NC(=O)[C@](C)(CC(C)C)NC(=O)[C@@H](NC(=O)C(C)(C)NC(=O)[C@H](Cc1ccc(O)cc1)NC(=O)[C@H](CC(=O)O)NC(=O)[C@H](CO)NC(=O)[C@@H](NC(=O)[C@](C)(Cc1ccccc1F)NC(=O)[C@@H](NC(=O)CNC(=O)[C@H](CCC(=O)O)NC(=O)C(C)(C)NC(=O)[C@@H](N)Cc1ccc(O)cc1)[C@@H](C)O)[C@@H](C)O)[C@@H](C)CC)C(=O)N[C@@H](C)C(=O)N[C@@H](CCC(N)=O)C(=O)NC(C)(C)C(=O)N[C@@H](CCC(=O)O)C(=O)N[C@@H](Cc1ccccc1)C(=O)N[C@H](C(=O)N[C@@H](CCCCNC(=O)COCCOCCNC(=O)COCCOCCNC(=O)CC[C@H](NC(=O)CCCCCCCCCCOc1ccc(C(=O)O)cc1)C(=O)O)C(=O)N[C@@](C)(Cc1ccc(O)cc1)C(=O)N[C@@H](CC(C)C)C(=O)N[C@H](C(=O)N[C@@H](CCCCNC(=O)COCCOCCNC(=O)COCCOCCNC(=O)CC[C@H](NC(=O)CCCCCCCCCCOc1ccc(C(=O)O)cc1)C(=O)O)C(=O)NCC(=O)NCC(=O)N1CCC[C@H]1C(=O)N[C@@H](CO)C(=O)N[C@@H](CO)C(=O)NCC(=O)N[C@@H](C)C(=O)N1CCC[C@H]1C(=O)N1CCC[C@H]1C(=O)N1CCC[C@H]1C(=O)N[C@@H](CO)C(N)=O)[C@@H](C)CC)[C@@H](C)CC [Example 312] | – | – | – | – | – | – | – | – | > 9950 nM | > 9950 nM | 89.5% | 105% | 0.00757 nM | 112% | 0.663 nM | – | – | – | –
CC[C@H](C)[C@H](NC(=O)[C@H](CCCN)NC(=O)[C@H](CC(=O)O)NC(=O)[C@H](CC(C)C)NC(=O)[C@](C)(CC(C)C)NC(=O)[C@@H](NC(=O)[C@](C)(CO)NC(=O)[C@H](Cc1ccc(O)cc1)NC(=O)[C@H](CC(=O)O)NC(=O)[C@H](CO)NC(=O)[C@@H](NC(=O)[C@](C)(Cc1ccccc1F)NC(=O)[C@@H](NC(=O)CNC(=O)[C@H](CCC(=O)O)NC(=O)C(C)(C)NC(=O)[C@@H](N)Cc1ccc(O)cc1)[C@@H](C)O)[C@@H](C)O)[C@@H](C)CC)C(=O)N[C@@H](C)C(=O)N[C@@H](CCC(N)=O)C(=O)NC(C)(C)C(=O)N[C@@H](CCC(=O)O)C(=O)N[C@@H](Cc1ccccc1)C(=O)N[C@H](C(=O)N[C@@H](CCCCNC(=O)COCCOCCNC(=O)COCCOCCNC(=O)CC[C@H](NC(=O)CCCCCCCCCCCCC(=O)O)C(=O)O)C(=O)N[C@@](C)(Cc1ccc(O)cc1)C(=O)N[C@@H](CC(C)C)C(=O)N[C@H](C(=O)N[C@@H](CCCCNC(=O)COCCOCCNC(=O)COCCOCCNC(=O)CC[C@H](NC(=O)CCCCCCCCCCCCC(=O)O)C(=O)O)C(=O)NCC(=O)NCC(=O)N1CCC[C@H]1C(=O)N[C@@H](CO)C(=O)N[C@@H](CO)C(=O)NCC(=O)N[C@@H](C)C(=O)N1CCC[C@H]1C(=O)N1CCC[C@H]1C(=O)N1CCC[C@H]1C(=O)N[C@@H](CO)C(N)=O)[C@@H](C)CC)[C@@H](C)CC [Example 303] | > 9950 nM | – | 89.8% | – | – | – | 111% | – | – | – | – | – | – | – | – | > 9950 nM | 100% | 0.0178 nM | 0.389 nM
CC[C@H](C)[C@H](NC(=O)[C@H](CC(C)C)NC(=O)[C@](C)(Cc1ccc(O)cc1)NC(=O)[C@@H](CCC(=O)O)NC(=O)[C@@H](NC(=O)[C@H](Cc1ccccc1)NC(=O)[C@H](CCC(=O)O)NC(=O)C(C)(C)NC(=O)[C@H](CCC(N)=O)NC(=O)[C@H](C)NC(=O)[C@H](CCCCNC(=O)COCCOCCNC(=O)COCCOCCNC(=O)CC[C@H](NC(=O)CCCCCCCCCCCCC(=O)O)C(=O)O)NC(=O)[C@H](CCCN)NC(=O)[C@H](CC(=O)O)NC(=O)[C@H](CC(C)C)NC(=O)[C@](C)(CC(C)C)NC(=O)[C@@H](NC(=O)[C@H](CN)NC(=O)[C@H](Cc1ccc(O)cc1)NC(=O)[C@H](CC(=O)O)NC(=O)[C@H](CO)NC(=O)[C@@H](NC(=O)[C@](C)(Cc1ccccc1F)NC(=O)[C@@H](NC(=O)CNC(=O)[C@H](CCC(=O)O)NC(=O)C(C)(C)NC(=O)[C@@H](N)Cc1ccc(O)cc1)[C@@H](C)O)[C@@H](C)O)[C@@H](C)CC)[C@@H](C)CC)C(=O)N[C@@H](CCC(=O)O)C(=O)NCC(=O)NCC(=O)N[C@@H](CCCCNC(=O)COCCOCCNC(=O)COCCOCCNC(=O)CC[C@H](NC(=O)CCCCCCCCCCCCC(=O)O)C(=O)O)C(=O)N[C@@H](CO)C(=O)N[C@@H](CO)C(=O)NCC(=O)N[C@@H](C)C(=O)N1CCC[C@H]1C(=O)N1CCC[C@H]1C(=O)N1CCC[C@H]1C(=O)N[C@@H](CO)C(N)=O [Example 200] | > 9950 nM | > 9950 nM | 83.7% | 96.3 ± 2.76% | – | 26.6 nM | 97.4% | – | – | – | – | – | – | – | – | – | – | – | –

Source: patent US20230265151A1, “GIP/GLP1 CO-AGONIST COMPOUNDS” (priority 2020, published 2023)
